# Experimental data from patent publication US9119396B2, “Method for promoting plant growth” (SUMITOMO CHEMICAL COMPANY, LIMITED, priority 2011, dated 2015).
# Key:
# Assay type in all cases: in vivo
# [1] = test system: Corn (cultivar: Kuromochi); assay: Test Example 2: promotion of growth by treatment of corn seeds; details: corn seed treatment, 50 g per 100 kg of seeds; cultivated 18 days at 27° C.
# Description: Evaluation Test for Promotion of Growth by Treatment of Corn Seeds Corn (cultivar: Kuromochi) A blank slurry solution containing 10% (V/V) color coat red (Becker Underwood, Inc.), 10% (V/V) CF-Clear (Becker Underwood, Inc.) and 1.66% Maxim 4FS (Syngenta) was prepared. A slurry solution was prepared by dissolving the present compound 1 in the blank slurry solution such that 50 g of the compound is applied to each 100 kg of corn seeds. In a 50-ml centrifuge tube (manufactured by BD Japan), 0.35 ml of the slurry solution was placed for each 14.4 g of corn seeds and stirred until the solution was dried, thereby coating the seeds. In addition, seeds were coated with the blank slurry solution and used as seeds for a non-treated group. One of the treated seeds was sown in culture soil (AISAI) in each pot (55 mm in diameter×58 mm in height) and cultivated for 18 days under the conditions of a temperature of 27° C., an illuminance of 5,000 lux, and a day length of 16 hours. After the cultivation, the fresh weight of the overground part of the plants was measured. The experiment was performed in three replications for each treatment condition and the average weight per individual was calculated. […]
# [2] = test system: Benthamiana tobacco (Nicotiana benthamiana); assay: Test Example 9: reduction of low-temperature stress in hydroponics of tobacco; details: tobacco seedlings, medium with 0.1 ppm compound for 7 days; low-temperature stress 1.5±1.0° C. 7 days, then 3 days at 22° C.
# Description: Evaluation Test for Reduction of Low-Temperature Stress in Hydroponics of Tobacco (Nicotiana benthamiana) Benthamiana tobacco (Nicotiana benthamiana) DMSO solutions containing each of the present compounds 1, 4 and 5 at a concentration of 100 ppm were prepared. […] These media were used in the treated-group. In a non-treated group, a medium obtained by adding a 1/1,000 volume of DMSO to a Murashige-and-Skoog medium at ½ concentration was used. The seeds of tobacco (Nicotiana benthamiana) were sown on 5 μL of the medium, and incubated at 22° C. overnight. Thereto was added 45 μL of a medium containing each present compound at a concentration of 0.1 ppm, and cultivated for 7 days under the conditions of an illuminance of 4,000 lux, a temperature of 22° C. and a day length of 16 hours, thereby treating the seedlings of tobacco (Nicotiana benthamiana) with the test compound. In the non-treated group, 45 μL of a medium obtained by adding a 1/1,000 volume of DMSO to a Murashige-and-Skoog medium at ½ concentration was added, and treated in the same manner as above. The seedlings of tobacco (Nicotiana benthamiana) treated with the present compounds were cultivated for 7 days under the conditions of an illuminance of 2,000 lux, a temperature of 1.5±1.0° C., and a day length of 16 hours, thereby subjecting to low-temperature stress treatment. The plants of tobacco (Nicotiana benthamiana) subjected to low-temperature stress treatment was cultivated for 3 days under the conditions of an illuminance of 4,000 lux, a temperature of 22° C., and a day length of 16 hours, and then the green leaf area of the plants was visually evaluated. Completely dead plant was scored as 0, the plant without low-temperature stress treatment was scored as 5, the green area was rated on a 6-point scale in ⅕ increments, and the score of not less than 1 was regarded as effective in reducing the stress. As a result of visual evaluation, the green leaf area of plants in the treated group, wherein the plants were treated with the present compound 1, 4 or 5 was much larger than that in the non-treated group.
# [3] = test system: Rice (cultivar: Nipponbare); assay: Test Example 4: reduction of low-temperature stress by immersion treatment of rice; details: rice seedlings, immersion at 1 ppm for 2 days; low-temperature stress 4° C. 5 days, then 4 days at 25° C.
# Description: Evaluation Test for Reduction of Low-Temperature Stress by Immersion Treatment of Rice Rice (cultivar: Nipponbare) A necessary amount of rice seeds was immersed in an aqueous solution of 1,000 ppm of Benlate, and incubated at 30° C. overnight under dark conditions. The aqueous solution of Benlate was replaced with distilled water, and the seeds were further incubated at 30° C. overnight under dark conditions to stimulate the germination of the seeds. A filter paper was placed on the holes of a plug tray having 406 holes, and the rice seeds obtained after the stimulation of germination were sown on the filter paper. To the rice seeds was added a kimura B solution for hydroponics (see Plant Science 119: 39-47 (1996)) at ½ concentration, and cultivated for 5 days in an artificial weather control room under the following conditions: • temperature: 28° C. in daytime/23° C. in night, humidity: 70%, illuminance: 8,500 lux, and day length: 12 hours. <Compound Treatment> A DMSO solution of 1,000 ppm of the present compound 1 was prepared, and diluted with a kimura B solution for hydroponics at ½ concentration. The solution for hydroponics containing the compound was dispensed into the wells of a 24-well plate at 2 ml per well. […] In the treated group, the experiment was performed in duplication and the average value of the green area per individual was calculated. […]
smiles,measurement,setting,value
COC(=O)c1cc2cc(C(F)(F)F)ccc2s1 [compound 1],fresh weight of the overground part of plants vs non-treated group,[1],much heavier
same,green leaf area of plants (visual evaluation) vs non-treated group,[2],much larger
same,green area of the overground part of the plant vs non-treated group,[3],much larger
